Measured values as given in US12358885B2, “Substituted n-propylamine fused heterocyclic mescaline derivatives” (Enveric Biosciences Canada Inc., priority 2022, dated 2025).
Like-named read-outs stand apart in the source and are kept apart here.

Experiments:
[1] = target: T1, 5-HT1A receptor (Homo sapiens, UniProt P08908); assay: 5-HT1A receptor radioligand competition assay (SPA, 8-hydroxy-DPAT [3H]); assay type: binding; settings: 0.5 nM hot 8-hydroxy-DPAT, membranes containing 5-HT1A
T1 construct: purchased Perkin Elmer 6110501400UA
T1 sequence (P08908 1-422): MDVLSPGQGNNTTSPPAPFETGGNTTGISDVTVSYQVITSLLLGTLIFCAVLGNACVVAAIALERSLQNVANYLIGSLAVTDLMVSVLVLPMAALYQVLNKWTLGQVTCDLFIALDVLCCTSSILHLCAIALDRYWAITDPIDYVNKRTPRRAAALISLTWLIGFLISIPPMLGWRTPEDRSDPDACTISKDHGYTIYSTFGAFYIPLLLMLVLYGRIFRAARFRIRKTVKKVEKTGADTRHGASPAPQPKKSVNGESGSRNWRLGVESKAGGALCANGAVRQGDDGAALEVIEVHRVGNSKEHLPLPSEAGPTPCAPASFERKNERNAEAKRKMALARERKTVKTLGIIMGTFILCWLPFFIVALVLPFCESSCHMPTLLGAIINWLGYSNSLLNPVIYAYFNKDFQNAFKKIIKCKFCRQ

[2] = target: T2, 5-HT2A receptor (Homo sapiens, UniProt P28223); assay: biochemical; assay type: binding; settings: 1 nM [3H]ketanserin; membranes containing 5-HT2A; SPA
T2 construct: host or cells: HEK-293 cells (membrane preparation)

[3] = target: T1, 5-HT1A receptor; assay: Eurofins Cerep competition binding assay at 5-HT1A receptor; settings: 10 μM test ligand; [3H]8-OH-DPAT; recombinant receptor in HEK-293 cells
[4] = target: T2, 5-HT2A receptor; assay: biochemical; assay type: binding; settings: for inhibition at 10 µM: read-out: HT2A, percent of control-specific binding
[5] = target: T3, 5-HT2B receptor (Homo sapiens, UniProt P41595); assay: Eurofins Cerep competition binding assay at 5-HT2B receptor; settings: 10 μM test ligand; [3H]mesulergine; recombinant receptor in CHO cells
T3 construct: host or cells: CHO cells (membrane preparation)

[6] = target: T4, 5-HT2C receptor (Homo sapiens, UniProt P28335); assay: Eurofins Cerep competition binding assay at 5-HT2C receptor; settings: 10 μM test ligand; [125I](±)DOI; recombinant receptor in HEK-293 cells
T4 construct: host or cells: HEK-293 cells (membrane preparation)
T4 sequence (P28335 33-458): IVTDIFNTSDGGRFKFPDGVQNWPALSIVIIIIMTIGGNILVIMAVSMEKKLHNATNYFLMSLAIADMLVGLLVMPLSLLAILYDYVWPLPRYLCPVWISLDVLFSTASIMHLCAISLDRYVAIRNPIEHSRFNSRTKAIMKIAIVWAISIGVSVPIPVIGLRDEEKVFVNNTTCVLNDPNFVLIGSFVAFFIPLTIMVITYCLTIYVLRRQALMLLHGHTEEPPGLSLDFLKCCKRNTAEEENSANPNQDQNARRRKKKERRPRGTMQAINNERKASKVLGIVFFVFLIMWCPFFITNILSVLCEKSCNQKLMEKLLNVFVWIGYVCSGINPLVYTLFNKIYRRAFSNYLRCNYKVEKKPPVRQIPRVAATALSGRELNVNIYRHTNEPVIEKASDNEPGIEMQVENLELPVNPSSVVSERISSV

[7] = target: T5, 5-HT7 receptor (Homo sapiens, UniProt P34969); assay: Eurofins Cerep competition binding assay at 5-HT7 receptor; settings: 10 μM test ligand; [3H]LSD; recombinant receptor in HEK-293 cells
T5 construct: host or cells: HEK-293 cells (membrane preparation)

[8] = target: T6, alpha2A receptor (Homo sapiens, UniProt P08913); assay: Eurofins Cerep competition binding assay at alpha2A receptor; settings: 10 μM test ligand; [3H]RX 821002; recombinant receptor in CHO cells
T6 construct: host or cells: CHO cells (membrane preparation)
T6 sequence (P08913 1-465): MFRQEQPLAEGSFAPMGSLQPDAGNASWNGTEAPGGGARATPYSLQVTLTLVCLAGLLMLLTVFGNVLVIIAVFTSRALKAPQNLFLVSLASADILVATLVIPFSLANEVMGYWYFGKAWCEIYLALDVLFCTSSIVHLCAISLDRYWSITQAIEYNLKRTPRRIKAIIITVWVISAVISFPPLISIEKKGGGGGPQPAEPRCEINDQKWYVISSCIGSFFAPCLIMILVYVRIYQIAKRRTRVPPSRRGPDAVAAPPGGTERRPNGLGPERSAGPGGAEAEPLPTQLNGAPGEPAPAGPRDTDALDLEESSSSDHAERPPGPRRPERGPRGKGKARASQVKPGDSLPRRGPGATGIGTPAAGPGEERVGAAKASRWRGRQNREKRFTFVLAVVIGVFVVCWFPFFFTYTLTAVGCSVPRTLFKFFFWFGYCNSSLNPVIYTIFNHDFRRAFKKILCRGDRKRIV

[9] = target: T7, D3 receptor (Homo sapiens, UniProt P35462); assay: Eurofins Cerep competition binding assay at D3 receptor; settings: 10 μM test ligand, [3H]methylspiperone, recombinant receptor in CHO cells; for inhibition at 10 µM: read-out: D3, percent of control-specific binding
T7 construct: host or cells: CHO cells (membrane preparation)

[10] = target: T8, serotonin transporter (SERT) (Homo sapiens, UniProt P31645); assay: biochemical; assay type: binding; settings: 10 µM
T8 construct: host or cells: CHO cells (membrane preparation)

[11] = target: T9, dopamine transporter (DAT) (Homo sapiens, UniProt Q01959); assay: Eurofins Cerep competition binding assay at dopamine transporter; settings: 10 μM test ligand; [3H]BTCP; recombinant transporter in CHO cells
T9 construct: host or cells: CHO cells (membrane preparation)

[12] = target: T10, MT1 receptor (Homo sapiens, UniProt P48039); assay: Eurofins Cerep competition binding assay at MT1 receptor; settings: 10 μM test ligand; [125I]2-iodomelatonin; recombinant receptor in CHO cells
T10 construct: host or cells: CHO cells (membrane preparation)

[13] = target: T11, norepinephrine transporter (NET) (Homo sapiens, UniProt P23975); assay: Eurofins Cerep competition binding assay at norepinephrine transporter; settings: 10 μM test ligand; [3H]nisoxetine; recombinant transporter in CHO cells
T11 construct: host or cells: CHO cells (membrane preparation)

[14] = target: T1, 5-HT1A receptor; assay: Functional 5-HT1A receptor cAMP assay in CHO-K1/5-HT1A/Gα15 cells; assay type: cell-based
[15] = 10 μM test molecule, [125I](±)DOI, recombinant receptor in HEK-293 cells

T2 sequence (P28223 whole entry): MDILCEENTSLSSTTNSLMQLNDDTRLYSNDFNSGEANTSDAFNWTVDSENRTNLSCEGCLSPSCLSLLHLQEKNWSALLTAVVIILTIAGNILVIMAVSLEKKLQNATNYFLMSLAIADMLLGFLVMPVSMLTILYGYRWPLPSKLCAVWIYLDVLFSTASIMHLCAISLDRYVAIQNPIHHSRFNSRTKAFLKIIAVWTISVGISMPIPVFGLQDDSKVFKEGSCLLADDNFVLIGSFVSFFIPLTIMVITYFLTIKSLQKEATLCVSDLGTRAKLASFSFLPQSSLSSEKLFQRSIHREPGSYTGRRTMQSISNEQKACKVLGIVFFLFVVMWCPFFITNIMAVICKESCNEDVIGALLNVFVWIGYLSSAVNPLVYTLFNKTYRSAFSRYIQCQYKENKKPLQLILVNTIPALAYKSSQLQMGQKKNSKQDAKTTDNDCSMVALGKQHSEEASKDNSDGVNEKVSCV
T7 sequence (P35462 whole entry): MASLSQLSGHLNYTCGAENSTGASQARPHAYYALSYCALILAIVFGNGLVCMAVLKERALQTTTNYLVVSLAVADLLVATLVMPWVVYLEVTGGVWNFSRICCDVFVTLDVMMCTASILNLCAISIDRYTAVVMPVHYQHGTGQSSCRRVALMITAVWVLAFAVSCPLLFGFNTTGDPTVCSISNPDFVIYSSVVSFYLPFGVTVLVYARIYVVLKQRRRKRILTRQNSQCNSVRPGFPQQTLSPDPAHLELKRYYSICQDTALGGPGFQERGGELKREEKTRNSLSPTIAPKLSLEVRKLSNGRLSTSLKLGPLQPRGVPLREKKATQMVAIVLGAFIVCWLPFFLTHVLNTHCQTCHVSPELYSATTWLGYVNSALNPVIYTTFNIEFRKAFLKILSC
T10 sequence (P48039 whole entry): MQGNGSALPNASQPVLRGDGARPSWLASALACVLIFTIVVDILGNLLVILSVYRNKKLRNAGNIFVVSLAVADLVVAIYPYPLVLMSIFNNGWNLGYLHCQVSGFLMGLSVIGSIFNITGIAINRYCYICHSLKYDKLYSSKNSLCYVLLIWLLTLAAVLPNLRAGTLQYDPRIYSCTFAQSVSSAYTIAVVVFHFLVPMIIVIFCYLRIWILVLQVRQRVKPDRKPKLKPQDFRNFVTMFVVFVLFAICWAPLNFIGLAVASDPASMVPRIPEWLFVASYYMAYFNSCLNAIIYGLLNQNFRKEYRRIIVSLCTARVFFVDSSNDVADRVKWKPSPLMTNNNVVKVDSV
T3 sequence (P41595 whole entry): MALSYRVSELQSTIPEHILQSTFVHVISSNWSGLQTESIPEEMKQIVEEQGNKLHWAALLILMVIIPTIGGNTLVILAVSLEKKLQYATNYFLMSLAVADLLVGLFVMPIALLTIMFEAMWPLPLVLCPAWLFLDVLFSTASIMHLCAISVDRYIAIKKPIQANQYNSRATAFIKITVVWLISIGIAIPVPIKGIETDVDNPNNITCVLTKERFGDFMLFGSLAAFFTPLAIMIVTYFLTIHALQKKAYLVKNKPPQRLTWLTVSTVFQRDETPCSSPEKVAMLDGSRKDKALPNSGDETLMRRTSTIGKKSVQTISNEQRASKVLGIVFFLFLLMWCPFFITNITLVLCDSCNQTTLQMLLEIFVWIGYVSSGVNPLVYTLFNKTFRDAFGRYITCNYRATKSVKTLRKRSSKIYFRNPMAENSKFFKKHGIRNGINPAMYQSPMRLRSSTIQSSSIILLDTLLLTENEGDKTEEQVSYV
T5 sequence (P34969 whole entry): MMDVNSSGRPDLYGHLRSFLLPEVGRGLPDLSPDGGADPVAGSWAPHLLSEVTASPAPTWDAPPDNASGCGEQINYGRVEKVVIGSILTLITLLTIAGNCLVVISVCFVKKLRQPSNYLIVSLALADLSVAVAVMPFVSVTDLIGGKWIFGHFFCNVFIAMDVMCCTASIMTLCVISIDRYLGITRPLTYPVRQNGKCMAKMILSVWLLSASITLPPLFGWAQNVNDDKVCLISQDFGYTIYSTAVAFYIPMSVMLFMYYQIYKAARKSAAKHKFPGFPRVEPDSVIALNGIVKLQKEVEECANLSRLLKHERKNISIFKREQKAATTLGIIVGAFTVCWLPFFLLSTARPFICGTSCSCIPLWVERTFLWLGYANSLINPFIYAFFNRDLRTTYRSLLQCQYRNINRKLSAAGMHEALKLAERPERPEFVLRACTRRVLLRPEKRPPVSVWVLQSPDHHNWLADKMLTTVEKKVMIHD
T11 sequence (P23975 whole entry): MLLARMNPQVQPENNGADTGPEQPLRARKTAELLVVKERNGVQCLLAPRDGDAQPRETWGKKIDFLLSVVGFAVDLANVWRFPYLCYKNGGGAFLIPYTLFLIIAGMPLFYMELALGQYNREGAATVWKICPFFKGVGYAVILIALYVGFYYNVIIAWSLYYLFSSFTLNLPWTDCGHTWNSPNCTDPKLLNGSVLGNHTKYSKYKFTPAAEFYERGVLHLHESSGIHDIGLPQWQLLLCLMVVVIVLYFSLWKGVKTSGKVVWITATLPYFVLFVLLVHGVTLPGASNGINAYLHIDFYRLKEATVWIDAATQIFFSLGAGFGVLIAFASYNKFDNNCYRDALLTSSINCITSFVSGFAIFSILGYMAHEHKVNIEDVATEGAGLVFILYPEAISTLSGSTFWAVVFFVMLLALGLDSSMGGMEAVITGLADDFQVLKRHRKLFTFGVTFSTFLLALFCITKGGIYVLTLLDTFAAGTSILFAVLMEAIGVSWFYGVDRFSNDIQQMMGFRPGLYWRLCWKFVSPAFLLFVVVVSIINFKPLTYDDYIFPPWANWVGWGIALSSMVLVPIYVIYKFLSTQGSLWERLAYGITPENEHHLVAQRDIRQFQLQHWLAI
T9 sequence (Q01959 whole entry): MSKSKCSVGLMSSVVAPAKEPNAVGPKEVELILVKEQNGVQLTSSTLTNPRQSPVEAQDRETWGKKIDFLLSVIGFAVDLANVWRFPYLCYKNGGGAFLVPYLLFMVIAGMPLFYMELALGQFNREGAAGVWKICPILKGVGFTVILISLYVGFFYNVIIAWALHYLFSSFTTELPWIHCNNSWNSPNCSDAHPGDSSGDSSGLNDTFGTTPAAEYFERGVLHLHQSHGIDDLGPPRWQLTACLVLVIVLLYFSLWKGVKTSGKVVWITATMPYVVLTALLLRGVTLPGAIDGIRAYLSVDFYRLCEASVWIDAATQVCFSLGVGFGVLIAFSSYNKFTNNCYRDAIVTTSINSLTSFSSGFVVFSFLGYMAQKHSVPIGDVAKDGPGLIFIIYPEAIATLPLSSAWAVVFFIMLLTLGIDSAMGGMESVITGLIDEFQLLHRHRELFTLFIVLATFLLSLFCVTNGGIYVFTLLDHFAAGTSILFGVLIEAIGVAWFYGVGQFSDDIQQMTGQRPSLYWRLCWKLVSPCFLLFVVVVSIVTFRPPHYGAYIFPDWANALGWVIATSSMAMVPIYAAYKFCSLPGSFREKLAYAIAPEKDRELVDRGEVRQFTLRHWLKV
T8 sequence (P31645 whole entry): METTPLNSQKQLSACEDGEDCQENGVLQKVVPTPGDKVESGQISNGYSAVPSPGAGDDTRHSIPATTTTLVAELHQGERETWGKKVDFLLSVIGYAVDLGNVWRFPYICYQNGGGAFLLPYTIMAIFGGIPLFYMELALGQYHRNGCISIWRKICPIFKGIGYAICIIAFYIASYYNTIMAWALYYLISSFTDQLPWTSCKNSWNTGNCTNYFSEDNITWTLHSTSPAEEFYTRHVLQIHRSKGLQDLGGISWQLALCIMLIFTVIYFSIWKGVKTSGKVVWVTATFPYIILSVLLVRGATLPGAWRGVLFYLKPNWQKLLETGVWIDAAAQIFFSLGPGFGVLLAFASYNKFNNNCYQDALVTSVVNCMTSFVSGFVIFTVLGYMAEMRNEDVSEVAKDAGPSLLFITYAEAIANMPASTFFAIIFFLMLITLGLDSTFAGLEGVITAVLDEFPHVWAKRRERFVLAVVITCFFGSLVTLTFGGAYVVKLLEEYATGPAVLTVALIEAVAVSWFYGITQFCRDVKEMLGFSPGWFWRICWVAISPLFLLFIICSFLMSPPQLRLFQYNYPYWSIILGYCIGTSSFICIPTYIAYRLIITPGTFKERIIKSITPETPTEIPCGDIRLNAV

In the case of CCOc1c(OC)cc(CCN)cc1OC [escaline], the Ki [1] is reported as 12.4 µM, the Ki [2] is reported as 61 µM and the “HT1A, percent of control-specific binding” value [3] is reported as 44%. For the same compound, the “HT2A, percent of control-specific binding” value [4, 15] was 84%, the “HT2B, percent of control-specific binding” value [5] was 81% and the “HT2C, percent of control-specific binding” value [6] was 95%. The “HT7, percent of control-specific binding” value [7] was 16%, the “α-2A, percent of control-specific binding” value (from here on “α-2A, percent”) [8] was 45% and the “D3, percent of control-specific binding” value [9] was 0%. The “SERT, percent of control-specific binding” value [10] was 0%, the “DAT, percent of control-specific binding” value [11] was 0% and the “MT1, percent of control-specific binding” value [12] was 0%. The “NET, percent of control-specific binding” value [13] was 6%.

N[C@@H](Cc1c[nH]c2ccccc12)C(=O)O [tryptophan] was tested, and the inhibition at 10 µM [4, 15] was -1%, the “α-2A, percent” value [8] was −4% and the inhibition at 10 µM [9] was -23%.

In the case of CN(C)CCCN1c2ccccc2CCc2ccccc21 [Imipramine], the inhibition at 10 µM [4, 15] is reported as 97%, the “α-2A, percent” value [8] is reported as 57% and the inhibition at 10 µM [9] is reported as 92%.

In the case of COc1cc(CC(C)N)c(OC)cc1Br (stereo not shown) [DOB, reference compound], the “HT1A, percent of control-specific binding” value [3] is reported as 75%, the “HT2A, percent of control-specific binding” value [4, 15] is reported as 100% and the “HT2B, percent of control-specific binding” value [5] is reported as 97%. The “HT7, percent of control-specific binding” value [7] was 65%, the “α-2A, percent” value [8] was 66% and the “D3, percent of control-specific binding” value [9] was 25%. For the same compound, the “SERT, percent of control-specific binding” value [10] was 53%, the “DAT, percent of control-specific binding” value [11] was 3% and the “MT1, percent of control-specific binding” value [12] was −3%. The “NET, percent of control-specific binding” value [13] was 6%.

In the case of N#Cc1ccc2[nH]cc(CCCCN3CCN(c4ccc5oc(C(N)=O)cc5c4)CC3)c2c1 [Vilazodone], the inhibition at 10 µM [4, 15] is reported as 94%, the “α-2A, percent” value [8] is reported as 65% and the inhibition at 10 µM [9] is reported as 99%.

In the case of COc1cc2c(cc1CCCN1CCCC1)OCO2 [C(V)], the Ki [1] is reported as 5 µM and the EC50 [14] is reported as 116 µM.

NCCc1c[nH]c2ccc(O)cc12 [serotonin] was tested, and the “α-2A, percent” value [8] was 18% and the inhibition at 10 µM [9] was 73%.

Work on CC(Cc1ccc2c(c1)OCO2)CN1CCCC1 (racemic) [A(II)] yielded a Ki [1] of 8 µM.

In the case of COc1cc(CCN)cc(OC)c1OC [mescaline, 3,4,5 trimethoxyphenethylamine], the inhibition at 10 µM [4, 15] is reported as 79%, the “α-2A, percent” value [8] is reported as 57% and the inhibition at 10 µM [9] is reported as -13%.

OCCNCCCc1cc2c(cc1Br)OCO2 [C(XIII)] was tested, and the EC50 [14] was 22.9 µM.

With COc1ccc2[nH]cc(CCNC(C)=O)c2c1 [Melatonin] the “α-2A, percent” value [8] was −7% and the inhibition at 10 µM [9] was 2%.

With CNCC[C@H](Oc1cccc2ccccc12)c1cccs1 [Duloxetine] the inhibition at 10 µM [4] was 95%, the “α-2A, percent” value [8] was 54% and the inhibition at 10 µM [9] was 66%.
